Data on 23 compounds can be found in ChEMBL document CHEMBL2375214, “Evaluation of anti-HCV activity and SAR study of (+)-lycoricidine through targeting of host heat-stress cognate 70 (Hsc70)” (Bioorg Med Chem Lett, 2013).

Data set [1] has as its system Hepatitis C virus. Nature of the data set: Selectivity index, ratio of CC50 for human Huh7.5 cells to EC50 for Hepatitis C virus. It counts as toxicity, cell-based, Huh-7. The settings on record: read-out: Ratio CC50/EC50.
For data set [2], the system named is Hepatitis C virus. Description: Antiviral activity against Hepatitis C virus infected in human Huh7.5 cells after 96 hrs by fluorescence microscopic analysis. It counts as functional, organism-based, Hepacivirus hominis. As to conditions: huh-7.
The nature of data set [3]: Cytotoxicity against human Huh7.5 cells treated after 96 hrs by MTT assay. It counts as cell-based, Huh-7. (In general: Tetrazolium assays rely on reduction of a dye to a coloured formazan, in cell work by metabolically active cells.)
Data set [4] can be described thus: Down regulation of Hsc70 protein expression in Hepatitis C virus-infected human Huh7.5 cells […] at 0.1 ug/mL after 24 hrs by Western blotting analysis relative to control. It counts as functional, cell-based. Details: scale not given: the % may be the effect or the level left. As to conditions: Huh-7. In general terms: A western blot detects proteins with antibodies after separation by electrophoresis.

The subject of data set [5] is Huh-7. Description: Inhibition of Hsc70 mRNA expression in Hepatitis C virus-infected human Huh7.5 cells at 10 ug/mL after 24 hrs by RT-PCR analysis relative to control. It counts as functional. As to conditions: Huh-7, 24 h.
Data set [6] can be described thus: Down regulation of Hsc70 protein expression in Hepatitis C virus-infected human Huh7.5 cells […] at 0.1 ug/mL after 24 hrs by Western blotting analysis relative to actin expression. It counts as functional, cell-based. As to conditions: Huh-7.
Data set [7] is described as follows: Down regulation of Hsc70 protein expression in Hepatitis C virus-infected human Huh7.5 cells at 0.1 ug/mL after 24 hrs by Western blotting analysis relative to actin expression. The settings on record: Huh-7. It counts as functional, cell-based.
Data set [8] has as its system Huh-7. Nature of the data set: Inhibition of Hsc70 mRNA expression in Hepatitis C virus-infected human Huh7.5 cells at 100 ug/mL after 24 hrs by RT-PCR analysis relative to control. The settings on record: Huh-7, 24 h. It counts as functional.
Data set [9] can be described thus: Down regulation of Hsc70 protein expression in Hepatitis C virus-infected human Huh7.5 cells at 0.1 ug/mL after 24 hrs by Western blotting analysis relative to control. It counts as functional, cell-based. As to conditions: Huh-7.
Data set [10] in a line: Down regulation of Hsc70 protein expression in Hepatitis C virus-infected human Huh7.5 cells at 1 ug/mL after 24 hrs by Western blotting analysis relative to actin expression. It counts as functional, cell-based. As to conditions: Huh-7.
Data set [11] in a line: Down regulation of Hsc70 protein expression in Hepatitis C virus-infected human Huh7.5 cells […] at 1 ug/mL after 24 hrs by Western blotting analysis relative to actin expression. It counts as functional, cell-based. As to conditions: Huh-7.
Data set [12] in a line: Down regulation of Hsc70 protein expression in Hepatitis C virus-infected human Huh7.5 cells at 100 ug/mL after 24 hrs by Western blotting analysis relative to actin expression. It counts as functional, cell-based. As to conditions: Huh-7.
Data set [13] can be described thus: Down regulation of Hsc70 protein expression in Hepatitis C virus-infected human Huh7.5 cells […] at 100 ug/mL after 24 hrs by Western blotting analysis relative to actin expression. The settings on record: Huh-7. It counts as functional, cell-based.
The nature of data set [14]: Down regulation of Hsc70 protein expression in Hepatitis C virus-infected human Huh7.5 cells […] at 10 ug/mL after 24 hrs by Western blotting analysis relative to actin expression. It counts as functional, cell-based. The settings on record: Huh-7.
Data set [15] can be described thus: Down regulation of Hsc70 protein expression in Hepatitis C virus-infected human Huh7.5 cells at 10 ug/mL after 24 hrs by Western blotting analysis relative to actin expression. It counts as functional, cell-based. The settings on record: Huh-7.

With `CO[C@H]1C=C2c3cc4c(cc3C(=O)N(C)[C@H]2[C@@H]2OC(C)(C)O[C@@H]21)OCO4`, the selectivity ratio with Hepatitis C virus [1] is 3.01. Moreover, the EC50 (in general, the concentration at which the effect is half-maximal) with Hepatitis C virus [2] came out at 93 µM. Moreover, the midpoint of cytotoxicity in [3], the CC50 at 96 h, lay at 280 µM.

With `CC1(C)O[C@@H]2[C@H](O1)[C@@H](O[Si](C)(C)C(C)(C)C)C=C1c3cc4c(cc3C(=O)N[C@H]12)OCO4`, in the data set on Hepatitis C virus [1], the selectivity ratio came out at 2.13. Further, the EC50 in the data set with Hepatitis C virus [2] came out at 75 µM. Moreover, the CC50 – broadly, the concentration at which the toxic effect on the cells reaches its halfway point – at 96 h in data set [3] turned out to be 160 µM.

Regarding `C=CCO[C@@H]1[C@H](OCC=C)[C@@H](OCC=C)C[C@@H]2c3cc4c(cc3C(=O)N(CC=C)[C@@H]12)OCO4`, the selectivity ratio in the data set on Hepatitis C virus [1] amounted to 3.17. Besides, the EC50 with Hepatitis C virus [2] is 12 µM. This compound also had a CC50 at 96 h in data set [3] of 38 µM.

For `CCO[C@@H]1[C@H](OCC)[C@@H](OCC)C[C@@H]2c3cc4c(cc3C(=O)N(CC)[C@@H]12)OCO4`, in the data set on Hepatitis C virus [1], the selectivity ratio is greater than 6.98. For the same compound, in the data set on Hepatitis C virus [2], the EC50 came out at 43 µM. Also, the CC50 at 96 h in data set [3] was greater than 300 µM.

As for `CCO[C@H]1C[C@@H]2c3cc4c(cc3C(=O)N(CC)[C@H]2[C@@H]2OC(C)(C)O[C@@H]21)OCO4`, the selectivity ratio with Hepatitis C virus [1] was 3.06. Besides, the EC50 in the data set with Hepatitis C virus [2] was 85 µM. This compound also yielded a CC50 at 96 h in data set [3] of 260 µM.

Regarding `CC1(C)O[C@@H]2[C@H](O1)[C@@H](OCc1ccccc1)C=C1c3cc4c(cc3C(=O)N(Cc3ccccc3)[C@H]12)OCO4`, the selectivity ratio with Hepatitis C virus [1] was found to be 3.08. Moreover, the EC50 with Hepatitis C virus [2] was determined as 65 µM. This compound displayed a CC50 at 96 h in data set [3] of 200 µM.

As for `O=C1N[C@@H]2C(=C[C@H](O)[C@@H](O)[C@H]2O)c2cc3c(cc21)OCO3`, the Activity turned out to be 6% in [4] and 28% in data set [9]. Testing at 10 µg/mL in the data set on Huh-7 [5] gave an inhibition of 91.4%. For the same compound, the values for the fold change (FC) in [6] and in data set [7] were 0.06 and 0.72, respectively. In addition, in the data set with Hepatitis C virus [1], the selectivity ratio stood at 12.7. Moreover, the EC50 with Hepatitis C virus [2] was 0.55 µM. In addition, the inhibition – broadly, how much of the control response was suppressed – at 100 µg/mL in the data set with Huh-7 [8] was 83.1%. The compound also had a CC50 at 96 h in data set [3] of 7.2 µM.

As for `CO[C@H]1C[C@@H]2c3cc4c(cc3C(=O)N(C)[C@H]2[C@@H]2OC(C)(C)O[C@@H]21)OCO4`, the selectivity ratio in the data set on Hepatitis C virus [1] came out at 2.17. In the data set on Hepatitis C virus [2], this compound had an EC50 of 92 µM. The compound also had a CC50 at 96 h in data set [3] of 250 µM.

As to `CC(=O)O[C@H]1C[C@@H]2c3cc4c(cc3C(=O)N[C@H]2[C@@H]2OC(C)(C)O[C@@H]21)OCO4`, the selectivity ratio in the data set with Hepatitis C virus [1] was found to be 3.03. This compound also had an EC50 in the data set on Hepatitis C virus [2] of 89 µM. The compound further showed a CC50 at 96 h in [3] of 270 µM.

With `C=CCO[C@H]1C=C2c3cc4c(cc3C(=O)N(CC=C)[C@H]2[C@@H]2OC(C)(C)O[C@@H]21)OCO4`, in the data set on Hepatitis C virus [1], the selectivity ratio was found to be 6.25. Moreover, in the data set with Hepatitis C virus [2], the EC50 is 40 µM. Moreover, in data set [3], it took 250 µM to reach half-maximal cytotoxicity (CC50 at 96 h).

In the case of `O[C@@H]1[C@@H](O)C=C2CCN3Cc4cc5c(cc4[C@H]1C23)OCO5` (stereo partly specified), the fold change (FC) came to 1.86 in [6], 0.78 in [7], 0.79 in data set [10] and 0.2 in data set [11].

`CC1(C)O[C@H]2[C@@H]3NC(=O)c4cc5c(cc4[C@H]3C[C@H](O)[C@H]2O1)OCO5`: the selectivity ratio in the data set on Hepatitis C virus [1] is less than 25.5. The same compound registered an EC50 in the data set on Hepatitis C virus [2] greater than 11 µM. Besides, the midpoint of cytotoxicity in [3], the CC50 at 96 h, lay at 280 µM.

`CC1(C)O[C@@H]2[C@H](O1)[C@@H](O)C=C1c3cc4c(cc3C(=O)N[C@H]12)OCO4`: the selectivity ratio in the data set with Hepatitis C virus [1] is 9.09. In the data set with Hepatitis C virus [2], this compound had an EC50 of 11 µM. The same compound displayed a CC50 at 96 h in [3] of 170 µM.

For `CO[C@@H]1[C@H](OC)[C@@H](OC)C=C2c3cc4c(cc3C(=O)N(C)[C@H]21)OCO4`, the selectivity ratio in the data set on Hepatitis C virus [1] turned out to be 8.2. This compound came in with an EC50 with Hepatitis C virus [2] of 22 µM. Also, the CC50 at 96 h in data set [3] was determined as 180 µM.

For `O[C@H]1[C@@H]2c3cc4c(cc3CN3CC[C@@H](C[C@H]1O)[C@H]23)OCO4`, the fold change (FC) in data set [12] is 0.67; in [6], 1.2; in data set [13] it was 0.1; in data set [7], 1.01; in data set [14] it was 1.22; in data set [10], 0.68. Moreover, the fold change (FC) is 0.6 in data set [15] and 1.16 in data set [11].

For the compound `CC(=O)O[C@H]1C=C2c3cc4c(cc3C(=O)N[C@H]2[C@@H]2OC(C)(C)O[C@@H]21)OCO4`, the selectivity ratio with Hepatitis C virus [1] was greater than 4.76. In the data set with Hepatitis C virus [2], this compound yielded an EC50 of 63 µM. The compound also returned a CC50 at 96 h in data set [3] greater than 300 µM.

On to `C=CCO[C@@H]1[C@H](OCC=C)[C@@H](OCC=C)C=C2c3cc4c(cc3C(=O)N(CC=C)[C@H]21)OCO4`, for which the selectivity ratio in the data set with Hepatitis C virus [1] amounted to 1.62. This compound also showed a concentration giving a half-maximal response (EC50) in the data set with Hepatitis C virus [2] of 74 µM. This compound also yielded a 50% cytotoxic concentration (CC50) at 96 h in data set [3] of 120 µM.

Consider `O=C1N[C@H]2[C@H](O)[C@H](O)[C@@H](O)C[C@@H]2c2cc3c(cc21)OCO3`, for which the selectivity ratio in the data set on Hepatitis C virus [1] worked out at 33.8. This compound came in with an EC50 in the data set on Hepatitis C virus [2] of 0.68 µM. Further, the CC50 at 96 h in [3] stood at 23 µM.

In the case of `O[C@@H]1[C@H](O)[C@@H](O)C=C2c3cc4c(cc3CN[C@H]21)OCO4`, the selectivity ratio with Hepatitis C virus [1] was greater than 10.9. Besides, the half-maximal effective concentration (EC50) with Hepatitis C virus [2] came out at 33 µM. Moreover, the CC50 at 96 h in data set [3] is greater than 360 µM.

In the case of `CCO[C@@H]1[C@H](OCC)[C@@H](OCC)C=C2c3cc4c(cc3C(=O)N(CC)[C@H]21)OCO4`, in the data set with Hepatitis C virus [1], the selectivity ratio was less than 3.01. In addition, in the data set with Hepatitis C virus [2], the EC50 is greater than 83 µM. The compound also yielded a CC50 at 96 h in data set [3] of 252 µM.

As for `CO[C@@H]1[C@H](OC)[C@@H](OC)C[C@@H]2c3cc4c(cc3C(=O)N(C)[C@@H]12)OCO4`, in the data set with Hepatitis C virus [1], the selectivity ratio was greater than 5.56. Also, the EC50 in the data set on Hepatitis C virus [2] was 54 µM. The CC50 at 96 h in [3] is greater than 300 µM.

In the case of `CCO[C@H]1C=C2c3cc4c(cc3C(=O)N(CC)[C@H]2[C@@H]2OC(C)(C)O[C@@H]21)OCO4`, in the data set with Hepatitis C virus [1], the selectivity ratio was 12. Also, in the data set with Hepatitis C virus [2], the EC50 worked out at 15 µM. The compound also returned a CC50 at 96 h in [3] of 180 µM.

Consider `CC(=O)O[C@@H]1[C@H](OC(C)=O)[C@@H](OC(C)=O)C=C2c3cc4c(cc3C(=O)N[C@H]21)OCO4` [LYCORICIDINE TRIACETATE], for which the selectivity ratio with Hepatitis C virus [1] was less than 33.8. In the data set on Hepatitis C virus [2], this compound came in with an EC50 greater than 0.98 µM. In data set [3], this compound yielded a CC50 at 96 h of 33 µM.
